Source: ChEMBL document CHEMBL4418487, “Max binders as myc modulators and uses thereof” (2017)
The source made the active and inactive calls. The rule behind the calls is not given here.

Key:
[1] = Cytotoxicity against human P493-6 cells with where Myc is in OFF- condition assessed as reduction in cell viability incubated for 3 days by CellTiter-Glo assay; assay type: cell-based
[2] = molecular target: Protein max (Homo sapiens) (UniProt P61244); experiment: Binding affinity to Max in human P493-6 cells using 2 mg protein by immunoblotting based pull down assay; assay type: cell-based
Chain of Protein max (Homo sapiens) (P61244 whole entry): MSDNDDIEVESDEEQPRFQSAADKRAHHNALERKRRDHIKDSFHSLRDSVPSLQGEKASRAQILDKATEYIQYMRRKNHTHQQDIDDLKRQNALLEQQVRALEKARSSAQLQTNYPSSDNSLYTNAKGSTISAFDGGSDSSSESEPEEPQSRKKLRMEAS

[3] = molecular target: Myc proto-oncogene protein (Homo sapiens) (UniProt P01106); experiment: Binding affinity to MYC in human P493-6 cells using 2 mg protein by immunoblotting based pull down assay; assay type: cell-based
Chain of Myc proto-oncogene protein (Homo sapiens) (P01106 whole entry): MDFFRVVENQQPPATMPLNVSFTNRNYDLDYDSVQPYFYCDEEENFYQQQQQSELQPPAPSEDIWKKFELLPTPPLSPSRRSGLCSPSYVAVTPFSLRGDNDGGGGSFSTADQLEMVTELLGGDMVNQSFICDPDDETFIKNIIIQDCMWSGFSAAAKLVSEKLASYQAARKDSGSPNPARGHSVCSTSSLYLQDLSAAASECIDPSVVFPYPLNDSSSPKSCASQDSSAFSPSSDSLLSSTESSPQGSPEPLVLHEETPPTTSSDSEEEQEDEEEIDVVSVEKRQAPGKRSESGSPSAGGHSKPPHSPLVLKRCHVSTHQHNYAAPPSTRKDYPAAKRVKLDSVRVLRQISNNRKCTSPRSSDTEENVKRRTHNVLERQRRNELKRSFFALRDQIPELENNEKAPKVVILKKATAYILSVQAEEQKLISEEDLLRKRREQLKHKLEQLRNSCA

ST486 = experiment: Cytotoxicity against human ST486 cells assessed as reduction in cell viability incubated for 3 days by CellTiter-Glo assay; assay type: functional, cell-based
NCI-H1963 = experiment: Cytotoxicity against human NCI-H1963 cells assessed as reduction in cell viability incubated for 3 days by CellTiter-Glo assay; assay type: functional, cell-based
CA46 = experiment: Cytotoxicity against human CA46 cells assessed as reduction in cell viability incubated for 3 days by CellTiter-Glo assay; assay type: functional, cell-based
Homo sapiens [4] = species on record: Homo sapiens; experiment: Cytotoxicity against human GBM4 cells assessed as reduction in cell viability incubated for 4 days by CellTiter-Glo assay; assay type: functional, cell-based
[5] = molecular target: Protein max (Homo sapiens) (UniProt P61244); experiment: Binding affinity to Max in human P493-6 cells using Bio-MS2 by Western blotting analysis based pull down assay; assay type: cell-based
[6] = Cytotoxicity against human P493-6 cells with where Myc is in ON- condition assessed as reduction in cell viability incubated for 3 days by CellTiter-Glo assay; assay type: functional, cell-based
[7] = molecular target: Protein max (Homo sapiens) (UniProt P61244); experiment: Binding affinity to Max in human P493-6 cells assessed as induction of perturbation in transcriptional programs after 45 mins; assay type: cell-based
[8] = molecular target: Protein max (Homo sapiens) (UniProt P61244); experiment: Binding affinity to Max in human P493-6 cells at […] incubated for 30 mins by immunoprecipitation based assay; assay type: cell-based
[9] = molecular target: Myc proto-oncogene protein (Homo sapiens) (UniProt P01106); experiment: Binding affinity to c-Myc in human P493-6 cells at […] incubated for 30 mins by immunoprecipitation based assay; assay type: cell-based
[10] = molecular target: Protein max (Homo sapiens) (UniProt P61244); experiment: Binding affinity to Max in human P493-6 cells assessed as effect on Max interactome by measuring perturbation in Rcor1 level at […] incubated for 30 mins by immunoprecipitation based assay; assay type: cell-based
[11] = molecular target: Protein max (Homo sapiens) (UniProt P61244); experiment: Binding affinity to Max in human P493-6 cells assessed as effect on Max interactome by measuring perturbation in Atg16l1 level at […] incubated for 30 mins by immunoprecipitation based assay; assay type: cell-based
[12] = molecular target: Protein max (Homo sapiens) (UniProt P61244); experiment: Binding affinity to Max in human P493-6 cells assessed as effect on Max interactome by measuring perturbation in Nacc2 level at […] incubated for 30 mins by immunoprecipitation based assay; assay type: cell-based
[13] = molecular target: Protein max (Homo sapiens) (UniProt P61244); experiment: Binding affinity to Max in human P493-6 cells assessed as effect on Max interactome by measuring perturbation in Yaf2 level at […] incubated for 30 mins by immunoprecipitation based assay; assay type: cell-based
[14] = molecular target: Protein max (Homo sapiens) (UniProt P61244); experiment: Binding affinity to Max in human P493-6 cells assessed as effect on Max interactome by measuring perturbation in Mxd4 level at […] incubated for 30 mins by immunoprecipitation based assay; assay type: cell-based
[15] = molecular target: Protein max (Homo sapiens) (UniProt P61244); experiment: Binding affinity to Max in human P493-6 cells assessed as effect on Max interactome by measuring perturbation in Myc level at […] incubated for 30 mins by immunoprecipitation based assay; assay type: cell-based
c-Myc/Max (Homo sapiens) = c-Myc/Max (Homo sapiens) (UniProt P01106+P61244); experiment: Inhibition of c-Myc/Max heterodimer interaction in human P493-6 cells by electrophoretic mobility shift assay; assay type: cell-based
[16] = molecular target: Protein max (Homo sapiens) (UniProt P61244); experiment: Induction of Max homodimer stabilization in human P493-6 cells assessed as increase in Max homodimer binding to DNA by electrophoretic mobility shift assay; assay type: cell-based
[17] = molecular target: Protein max (Homo sapiens) (UniProt P61244); experiment: Binding affinity to Max in human P493-6 cells assessed as decrease in Myc protein levels; assay type: cell-based
[18] = molecular target: Protein max (Homo sapiens) (UniProt P61244); experiment: Binding affinity to Max in human P493-6 cells assessed as decrease in Myc protein levels at 10 uM in presence of 10 uM proteasome inhibitor MG132; assay type: cell-based
[19] = molecular target: Protein max (Homo sapiens) (UniProt P61244); experiment: Binding affinity to Max in human P493-6 cells assessed as decrease in Myc transcript levels by qPCR analysis; assay type: cell-based
Homo sapiens [20] = experiment: Antitumor activity against Luc-labeled and MYC-driven human T-ALL 4188 cells xenografted in immune-compromised NSG mouse assessed as reduction in tumor volume at 20 uM, iv measured during 2 to 12 days after tumor implantation; assay type: functional, organism-based
Homo sapiens [21] = experiment: Antitumor activity against Luc-labeled and MYC-driven human T-ALL 4188 cells xenografted in immune-compromised NSG mouse assessed as reduction in tumor volume at 10 mg/ml dosed in corn oil every other day during day 2 to 16 after tumor implantation; assay type: functional, organism-based
Homo sapiens [22] = experiment: Antitumor activity against Luc-labeled and MYC-driven human T-ALL 4188 cells xenografted in immune-compromised NSG mouse assessed as reduction in tumor volume using tumor cells pre-treated with 20 uM compound for 24 hrs; assay type: functional
[23] = Retention time of the compound by LC/MS analysis; assay type: physicochemical
[24] = Drug level in plasma (unknown origin) at 0.2 to 10 uM by serial dilution-lowest detection limit test; assay type: ADME, cell-free
[25] = Drug level in mouse plasma at 20 uM, iv by LC/MS analysis; assay type: ADME, organism-based; conditions: in vivo
[26] = Drug level in mouse plasma at 20 uM, po by LC/MS analysis; assay type: ADME, organism-based; conditions: in vivo
[27] = Drug level in mouse plasma at 100 to 200 uM, po dosed using cyclodextrin vehicle by LC/MS analysis; assay type: ADME, organism-based; conditions: in vivo
[28] = Toxicity in healthy mouse assessed as effect on body weight at 0.364 mg/kg, po dosed daily using cyclodextrin vehicle for 7 days measured on each day; assay type: organism-based; conditions: in vivo, 168 h
[29] = Toxicity in healthy mouse assessed as effect on behavior at 0.364 mg/kg, po dosed daily using cyclodextrin vehicle for 7 days measured on each day; assay type: organism-based; conditions: in vivo, 168 h
[30] = Toxicity in healthy mouse assessed as effect on body weight at 0.731 mg/kg, po dosed daily using cyclodextrin vehicle for 7 days measured on each day; assay type: organism-based; conditions: in vivo, 168 h
[31] = Toxicity in healthy mouse assessed as effect on behavior at 0.731 mg/kg, po dosed daily using cyclodextrin vehicle for 7 days measured on each day; assay type: organism-based; conditions: in vivo, 168 h
[32] = Hepatic toxicity in healthy mouse assessed as induction of liver damage at 0.731 mg/kg, po dosed daily using cyclodextrin vehicle for 7 days by H and E staining histological analysis; assay type: organism-based; conditions: in vivo, 168 h
[33] = Toxicity in healthy mouse assessed as effect on liver at 0.731 mg/kg, po dosed daily using cyclodextrin vehicle for 7 days by H and E staining histological analysis; assay type: organism-based; conditions: in vivo, 168 h
[34] = Renal toxicity in healthy mouse assessed as induction of kidney damage at 0.731 mg/kg, po dosed daily using cyclodextrin vehicle for 7 days by H and E staining histological analysis; assay type: organism-based; conditions: in vivo, 168 h
[35] = Renal toxicity in healthy mouse assessed as induction of kidney damage at 0.364 mg/kg, po dosed daily using cyclodextrin vehicle for 7 days by H and E staining histological analysis; assay type: organism-based; conditions: in vivo, 168 h
[36] = Toxicity in healthy mouse assessed as effect on liver at 0.364 mg/kg, po dosed daily using cyclodextrin vehicle for 7 days by H and E staining histological analysis; assay type: organism-based; conditions: in vivo, 168 h
[37] = molecular target: Protein max (Homo sapiens) (UniProt P61244); experiment: Induction of recombinant human Max homodimer stabilization at 10 uM pre-incubated for 1 hr with protein and measured after 18 hrs
[38] = molecular target: Protein max (Homo sapiens) (UniProt P61244); experiment: Binding affinity to Max in human P493-6 cells at 5 to 10 uM using AlexaFluor-tagged compound by Western blotting analysis based target engagement assay; assay type: cell-based
[39] = molecular target: Protein max (Homo sapiens) (UniProt P61244); experiment: Binding affinity to Max in human P493-6 cells at 5 to 10 uM using AlexaFluor-tagged compound in presence of 20 uM soluble KI-MS2-008 by Western blotting analysis based target engagement assay; assay type: cell-based
[40] = molecular target: Protein max (Homo sapiens) (UniProt P61244); experiment: Binding affinity to Max in human P493-6 cells using Biotin with streptavidin enrichment by Western blotting analysis based target engagement assay; assay type: cell-based
Astrocyte = experiment: Cytotoxicity against normal human astrocytes assessed as reduction in cell viability incubated for 4 days by CellTiter-Glo assay; assay type: cell-based; conditions: 96 h

SMILES: CCOC(=O)CN1Cc2ccccc2[C@@H]2OC(c3ccccc3)=N[C@]2(Cc2ccccc2)C1=O
- IC50 ([1]; Homo sapiens, P493-6, 72 h): > 50 µM

SMILES: NCCOCCOCCNC(=O)CN1Cc2ccccc2[C@@H]2OC(c3ccccc3)=N[C@]2(Cc2ccccc2)C1=O
- Activity [2]: Active
- Activity [3]: Active

SMILES: O=C1N(CCS(=O)(=O)c2ccccc2)Cc2ccccc2[C@@H]2OC(c3ccc(OCCCO)cc3)=N[C@]12Cc1ccccc1 (racemic) [listing 1 of 2 here]
- Activity (ST486): Active
- Activity (NCI-H1963): Active
- Activity (CA46): Active
- Activity (Homo sapiens [4]): Active
- Activity [5]: Active

SMILES: CC(=O)N1Cc2ccccc2[C@@H]2OC(c3ccccc3)=N[C@]2(Cc2ccccc2)C1=O
- IC50 ([6]; Homo sapiens, P493-6, 72 h): 19.3 µM
- IC50 ([1]; Homo sapiens, P493-6, 72 h): > 50 µM

SMILES: O=C1N(CCS(=O)(=O)c2ccccc2)Cc2ccccc2[C@@H]2OC(c3ccccc3)=N[C@]12Cc1ccccc1
- Activity [7]: Active
- IC50 ([1]; Homo sapiens, P493-6, 72 h): > 50 µM
- Activity [8]: Active
- Activity [9]: Active
- Activity [10]: Active
- Activity [11]: Active
- Activity [12]: Active
- Activity [13]: Active
- Activity [14]: Active
- Activity [15]: Active
- inhibition (c-Myc/Max (Homo sapiens)): inactive
- Activity [16]: Dose-dependent effect
- Activity [17]: Dose-dependent effect
- Activity [18]: inactive
- Activity [19]: Active
- Activity (Homo sapiens [20]): Active
- Activity (Homo sapiens [21]): Active
- Activity (Homo sapiens [22]): Active
- Retention_time [23]: 9 min
- Drug uptake [24]: Active
- Drug uptake [25]: Active
- Drug uptake [26]: Not Active
- Drug uptake [27]: Active
- Activity [28]: Non-Toxic
- Activity [29]: Non-Toxic
- Activity [30]: Non-Toxic
- Activity [31]: Non-Toxic
- Activity [32]: Non-Toxic
- Activity [33]: Non-Toxic
- Activity [34]: Non-Toxic
- Activity [35]: Non-Toxic
- Activity [36]: Non-Toxic
- Activity [37]: Active

SMILES: C=CCN1Cc2ccccc2[C@@H]2OC(c3ccccc3)=N[C@]2(Cc2ccccc2)C1=O
- IC50 ([1]; Homo sapiens, P493-6, 72 h): > 50 µM

SMILES: CCN(CC(=O)NCCNC(=O)CN1Cc2ccccc2[C@@H]2OC(c3ccccc3)=N[C@]2(Cc2ccccc2)C1=O)C(=O)CCC1(C)N=N1
- Activity [38]: Active
- Activity [39]: inactive
- Activity [40]: Active

SMILES: O=C(O)CN1Cc2ccccc2[C@@H]2OC(c3ccccc3)=N[C@]2(Cc2ccccc2)C1=O
- IC50 ([1]; Homo sapiens, P493-6, 72 h): > 50 µM

SMILES: O=C1N(CCS(=O)(=O)c2ccccc2)Cc2cc(Cl)ccc2[C@@H]2OC(c3ccccc3)=N[C@]12Cc1ccccc1
- IC50 ([6]; Homo sapiens, P493-6, 72 h): 25.8 µM
- IC50 ([1]; Homo sapiens, P493-6, 72 h): > 50 µM

SMILES: O=C(c1ccccc1)N1Cc2ccccc2[C@@H]2OC(c3ccccc3)=N[C@]2(Cc2ccccc2)C1=O
- IC50 ([6]; Homo sapiens, P493-6, 72 h): > 50 µM
- IC50 ([1]; Homo sapiens, P493-6, 72 h): > 50 µM

SMILES: O=C1N(CCS(=O)(=O)c2ccccc2)Cc2ccccc2[C@@H]2OC(c3ccc(OCCCO)cc3)=N[C@]12Cc1ccccc1
- IC50 [1]: > 50 µM

SMILES: O=C1N(CCS(=O)(=O)c2ccccc2)Cc2ccccc2[C@@H]2OC(c3ccc(OCCCO)cc3)=N[C@]12Cc1ccccc1 (racemic) [listing 2 of 2 here]
- Activity (Astrocyte): Non-Toxic
- IC50 [6]: 6.8 to 14.5 µM
- IC50 ([1]; Homo sapiens, P493-6, 72 h): 50 to 58.1 µM

SMILES: O=C1NCc2ccccc2[C@@H]2OC(c3ccccc3)=N[C@]12Cc1ccccc1
- IC50 ([1]; Homo sapiens, P493-6, 72 h): > 50 µM
